Experimental data as given in ChEMBL document CHEMBL4184206, “Design, synthesis and evaluate of novel dual FGFR1 and HDAC inhibitors bearing an indazole scaffold” (Bioorg Med Chem, 2018).

How the values were obtained:
MCF7 = test: Antiproliferative activity against human MCF7 cells after 48 hrs by CCK-8 assay; conditions: MCF7, 48 h
[1] = target: T1, Protein deacetylase HDAC6 (Homo sapiens, UniProt Q9UBN7); test: Inhibition of HDAC6 (unknown origin) preincubated for 10 mins followed by Ac-Leu-GlyLys(Ac)-AMC substrate addition measured after 30 mins by fluorescence based assay
T1 sequence (Q9UBN7 whole entry): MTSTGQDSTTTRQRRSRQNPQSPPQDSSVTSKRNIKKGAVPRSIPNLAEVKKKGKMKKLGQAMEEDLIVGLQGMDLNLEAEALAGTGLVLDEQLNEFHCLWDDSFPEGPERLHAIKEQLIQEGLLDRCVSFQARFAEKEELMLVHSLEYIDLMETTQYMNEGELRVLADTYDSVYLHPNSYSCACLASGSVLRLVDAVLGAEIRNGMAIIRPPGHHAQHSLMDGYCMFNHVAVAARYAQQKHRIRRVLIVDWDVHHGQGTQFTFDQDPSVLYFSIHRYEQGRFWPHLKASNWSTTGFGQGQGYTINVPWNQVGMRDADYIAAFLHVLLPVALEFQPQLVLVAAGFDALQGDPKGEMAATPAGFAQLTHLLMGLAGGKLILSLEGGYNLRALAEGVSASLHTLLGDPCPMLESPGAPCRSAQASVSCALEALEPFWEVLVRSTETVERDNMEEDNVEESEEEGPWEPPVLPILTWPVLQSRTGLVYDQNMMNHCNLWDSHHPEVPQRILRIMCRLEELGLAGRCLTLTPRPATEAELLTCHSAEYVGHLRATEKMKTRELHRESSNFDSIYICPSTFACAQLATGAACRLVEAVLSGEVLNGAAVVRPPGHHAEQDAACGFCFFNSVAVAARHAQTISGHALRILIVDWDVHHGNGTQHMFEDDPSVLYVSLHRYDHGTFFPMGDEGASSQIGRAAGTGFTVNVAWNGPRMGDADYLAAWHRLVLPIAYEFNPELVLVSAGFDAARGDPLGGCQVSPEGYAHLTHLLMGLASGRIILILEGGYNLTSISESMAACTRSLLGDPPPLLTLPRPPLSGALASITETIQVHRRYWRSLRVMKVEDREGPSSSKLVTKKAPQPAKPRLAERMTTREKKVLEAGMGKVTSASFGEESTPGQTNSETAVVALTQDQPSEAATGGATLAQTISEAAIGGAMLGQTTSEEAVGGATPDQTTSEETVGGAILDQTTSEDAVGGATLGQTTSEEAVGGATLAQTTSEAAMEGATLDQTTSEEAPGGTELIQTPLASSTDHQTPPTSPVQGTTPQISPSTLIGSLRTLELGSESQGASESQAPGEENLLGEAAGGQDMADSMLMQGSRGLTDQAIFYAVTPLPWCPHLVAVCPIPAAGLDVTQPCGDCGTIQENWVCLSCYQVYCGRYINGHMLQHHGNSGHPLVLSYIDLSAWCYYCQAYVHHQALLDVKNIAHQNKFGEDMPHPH

SMILES	IC50 (MCF7)	IC50 [1]
CCN1CCN(c2ccc(C(=O)Nc3n[nH]c4cc(-c5cccc(OC)c5F)ccc34)cc2)CC1	40.5 nM	
CCCOc1cccc(-c2ccc3c(NC(=O)c4ccc(C(=O)NO)cc4)n[nH]c3c2)c1	> 100000 nM	345 nM
O=C(NO)c1ccc(C(=O)Nc2n[nH]c3cc(-c4ccc(Cl)c(F)c4)ccc23)cc1	> 100000 nM	98 nM
CCOc1cccc(-c2ccc3c(NC(=O)c4ccc(C(=O)NO)cc4)n[nH]c3c2)c1	9000 nM	34 nM
O=C(NO)c1ccc(C(=O)Nc2n[nH]c3cc(-c4cc(Cl)cc(Cl)c4)ccc23)cc1	> 100000 nM	293 nM
COc1ccccc1-c1ccc2c(NC(=O)c3ccc(C(=O)NO)cc3)n[nH]c2c1	28000 nM	40 nM
O=C(NO)c1ccc(C(=O)Nc2n[nH]c3cc(-c4ccc(C(F)(F)F)cc4)ccc23)cc1	> 100000 nM	103 nM
COc1cccc(-c2ccc3c(NC(=O)c4ccc(C(=O)NO)cc4)n[nH]c3c2)c1F	> 100000 nM	58 nM
O=C(NO)c1ccc(C(=O)Nc2n[nH]c3cc(-c4cc(Cl)ccc4Cl)ccc23)cc1	> 100000 nM	178 nM
O=C(NO)c1ccc(C(=O)Nc2n[nH]c3cc(-c4cccc(Cl)c4Cl)ccc23)cc1	> 100000 nM	157 nM
CC(C)Oc1cccc(-c2ccc3c(NC(=O)c4ccc(C(=O)NO)cc4)n[nH]c3c2)c1	> 100000 nM	78 nM
O=C(NO)c1ccc(C(=O)Nc2n[nH]c3cc(-c4cccc(OC(F)(F)F)c4)ccc23)cc1	> 100000 nM	218 nM
Cc1cc(C)cc(-c2ccc3c(NC(=O)c4ccc(C(=O)NO)cc4)n[nH]c3c2)c1	> 100000 nM	250 nM
COc1cc(OC)cc(-c2ccc3c(NC(=O)c4ccc(C(=O)NO)cc4)n[nH]c3c2)c1	> 100000 nM	242 nM
COc1ccc(-c2ccc3c(NC(=O)c4ccc(C(=O)NO)cc4)n[nH]c3c2)cc1OC	15200 nM	33 nM
O=C(NO)c1ccc(C(=O)Nc2n[nH]c3cc(-c4ccccc4)ccc23)cc1	> 100000 nM	38 nM
O=C(NO)c1ccc(C(=O)Nc2n[nH]c3cc(-c4cccc(Cl)c4)ccc23)cc1	> 100000 nM	69 nM
COc1ccc(F)cc1-c1ccc2c(NC(=O)c3ccc(C(=O)NO)cc3)n[nH]c2c1	> 100000 nM	64 nM
O=C(NO)c1ccc(C(=O)Nc2n[nH]c3cc(-c4ccc(Cl)c(Cl)c4)ccc23)cc1	> 100000 nM	147 nM
COc1cccc(-c2ccc3c(NC(=O)c4ccc(C(=O)NO)cc4)n[nH]c3c2)c1	> 100000 nM	132 nM
O=C(NO)c1ccc(C(=O)Nc2n[nH]c3cc(-c4ccccc4F)ccc23)cc1	45000 nM	65 nM
O=C(NO)c1ccc(C(=O)Nc2n[nH]c3cc(-c4c(Cl)cccc4Cl)ccc23)cc1	> 100000 nM	385 nM
O=C(NO)c1ccc(C(=O)Nc2n[nH]c3cc(-c4ccc(Cl)cc4)ccc23)cc1	> 100000 nM	281 nM
O=C(NO)c1ccc(C(=O)Nc2n[nH]c3cc(-c4ccccc4Cl)ccc23)cc1	23000 nM	59 nM
COc1ccc(-c2ccc3c(NC(=O)c4ccc(C(=O)NO)cc4)n[nH]c3c2)cc1	22000 nM	41 nM
CCCCN(Cc1ccc(C(=O)NO)cc1)C(=O)Nc1ccccc1 [NEXTURASTAT A]	1400 nM	
